{
  "source": "patent US7714158B2",
  "about": "“Ibandronate polymorph” (Hoffmann-La Roche Inc., priority 2005, dated 2010)",
  "key": {"[1]": {"experiment": "Solubility measurement of crystalline Ibandronate polymorphs by suspension and complexometric titration", "type": "physicochemical", "details": "Polymorph A; water; 25° C., 24 h stirred + 24 h unstirred; listed as Ibandronate polymorph A, monosodium salt monohydrate", "method": "The solubility of the individual crystalline Ibandronate polymorphs A and B was measured for various solutions. Approximately 10 g of the corresponding polymorph A or B were suspended in three different buffer solutions at pH 2, pH 4 (Titrisol-buffer, citrate/HCl), at pH 7 (methenamine buffer, HCl) or in water. The suspension was stirred for 24 hours at 25° C. and was kept additionally 24 hours without stirring at the same temperature. Solubility was calculated by titration according to the following method.\nThe residue was filtered, 2 ml of the filtrate taken, 5 ml of Titriplex III solution were added and diluted with water to 100 ml. 2 ml of this solution were added to approximately 0.1 ml of xylenol orange indicator and the pH was adjusted to 6.5 by adding small portions of methenamine buffer solution or 0.1 M hydrochloric acid. The solution is titrated immediately with Th-DCTA-xylenol orange complex until the color changes from yellow to reddish-violet. The endpoint is determined photometrically."}, "[2]": {"experiment": "Relative thermodynamic stability of Ibandronate polymorphs", "details": "compared with polymorph B"}},
  "data": [
    {"smiles": "CCCCCN(C)CCC(O)(P(=O)([O-])O)P(=O)(O)O.O.[Na+]", "note": "[Polymorph A, 3-(N-methyl-N-pentyl) amino-1-hydroxypropane-1,1-diphosphonic acid monosodium salt monohydrate]", "values": [
      {"measurement": "solubility", "setting": "[1]", "value": "about 278 g/l"},
      {"measurement": "thermodynamic stability", "setting": "[2]", "value": "thermodynamically more stable"}
    ]}
  ]
}
